From PMC8009514 (Langmuir, 2020)
Like-named read-outs stand apart in the source and are kept apart here. One block for each molecule: values may come before it. Ends that are not written are not given here.

Columns and labels:
[1] = cited from earlier work
Excerpt: Aggregates begin to form above a particular concentration, which can be interpreted as the monomer solubility, cs. This concentration can be measured, for example, by following the scattered light intensity as a function of dilution of a sample with an initial concentration c > cs.[13] For this purpose, solutions of the peptides at 1 wt % were gradually diluted in order to determine at which concentration the light scattering signal reached the solvent level, which is a good indication of the monomer solubility. With this method, monomer solubilities of 2 mM and 7 μM in water were determined f ...

[2] = Monomer solubility (cs) from scattered light intensity on dilution; assay type: physicochemical
Experimental: Dynamic light scattering (DLS) experiments were performed with an ALV/DLS/SLS-5022F goniometer system with an ALV-7004 correlator at a scattering angle of 90°. The laser source was a 22 mW He–Ne laser with a wavelength of 632.8 nm. The samples were placed in 5 mm glass tubes, kept at 25 °C, and the intensity autocorrelation functions were collected over runs of 300 s, using two avalanche photodiode detectors operating in the pseudo-cross-correlational mode. Light scattering experiments were also performed using a modulated three-dimensional light scattering instrument (LS Instruments GmbH, Switzerland), implementing a laser with a wavelength of 660 nm and two avalanche photodiodes. […] The experimental intensity correlation functions g^(2)(τ) were converted to C(τ) = (g^(2)(τ) – 1)/β = |g^(1)(τ)|^2,[35] where β is an instrumental constant, close to unity, and g^(1)(τ) is the correlation function of the electric field, which was fitted using the cumulant expansion to obtain an average diffusion coefficient.[36] Fitting was performed with an in-house MATLAB script.
Aggregates begin to form above a particular concentration, which can be interpreted as the monomer solubility, cs. This concentration can be measured, for example, by following the scattered light intensity as a function of dilution of a sample with an initial concentration c > cs.[13] For this purpose, solutions of the peptides at 1 wt % were gradually diluted in order to determine at which concentration the light scattering signal reached the solvent level, which is a good indication of the monomer solubility. […] For A8K, the monomer solubilities of about 10 μM were obtained, which means approximately 2 orders of magnitude smaller compared to that in water.

[3] = Visual observation of gel-like (arrested) state; assay type: physicochemical
Experimental: Previous SAXS experiments on the peptides in water[13],[17] have shown that this concentration could be considered dilute enough not to manifest any effects of interaggregate interactions in the scattering profiles. The first observation made was that the peptide samples in MeOH and DMF were more viscous than the corresponding samples in water prepared at similar concentrations and presented highly viscous (gel-like) states after 5-12 h from solubilization (Figure 2).

[4] = cited from earlier work; remark: listed apart in the source
Excerpt: Table 1 Some Physicochemical Properties of the Three Solvents in Which the Self-Assembly of the Peptides Was Investigated | column: H2O; MeOH; DMF

[5] = biological target: the molecule itself; experiment: light scattering intensity on dilution; peptide in N,N-dimethylformamide, 1 wt % solution gradually diluted, mean count rate at 90°; concentration at which the signal reaches the solvent level is taken as monomer solubility
[6] = as above; details: other: light scattering intensity on dilution
[7] = light scattering intensity on dilution; peptide in methanol, 1 wt % solution gradually diluted, mean count rate at 90°; concentration at which the signal reaches the solvent level is taken as monomer solubility; details: other: light scattering intensity on dilution

- monomer solubility cs ([2]; in DMF, 1 wt % TFA-salt solution gradually diluted until light scattering signal reached solvent level, mean count rate at 90°, average of three runs of 100 s): approximately the same solubilities
- monomer solubility cs ([2]; in MeOH, 1 wt % TFA-salt solution gradually diluted until light scattering signal reached solvent level, mean count rate at 90°, average of three runs of 100 s): approximately the same solubilities
- time from solubilization to highly viscous (gel-like) state ([3]; samples around 1 wt % in MeOH and DMF): 5 to 12 h
Molecule: C[C@H](N)C(=O)N[C@@H](C)C(=O)N[C@@H](C)C(=O)N[C@@H](C)C(=O)N[C@@H](C)C(=O)N[C@@H](C)C(=O)N[C@@H](C)C(=O)N[C@@H](C)C(=O)N[C@@H](C)C(=O)N[C@@H](C)C(=O)N[C@@H](CCCCN)C(=O)O [A10K]
- monomer solubility cs ([1]; in water, scattered light intensity on dilution of a sample with c > cs): 7 µM

Molecule: CCCCCC [hexane]
- solubility of hexane at 25 °C ([4]; in H2O): 0.0124 mg/mL
- solubility of hexane at 25 °C ([4]; in MeOH): 604 mg/mL

- monomer solubility cs [2]: about 10 μM
- time from solubilization to highly viscous (gel-like) state [3]: 5 to 12 h
Molecule: AAAAAAAAK [A8K]
- monomer solubility cs [1]: 2000 µM

Molecule: CCCCCCCCCCCCOS(=O)(=O)[O-].[Na+] [SDS]
- CMC of SDS at 25 °C ([4]; in DMF): 14.6 mM
- CMC of SDS at 25 °C ([4]; in H2O): 7.8 mM
- CMC of SDS at 25 °C ([4]; in MeOH): 6.9 mM

B1: A10K amphiphilic model peptide (peptide)
peptide: AAAAAAAAAAK
notes: unprotected N-terminus; 11 residues, 857 g/mol; Designed model peptide; The printed molecular weight (857 g/mol) fits free N- and C-termini; TFA counterions are present; also called AnK (n = 10); source: synthetic peptide; bought: CPC Scientific Inc., trifluoroacetate salt, purity >96%, used without further purification
- binding result [5]: binds

Molecule: AAAAAAAAK [A8K amphiphilic model peptide]
- monomer solubility cs (concentration above which aggregates form) [6]: For A8K, the monomer solubilities of about 10 μM were obtained
- monomer solubility cs (concentration above which aggregates form) [7]: For A8K, the monomer solubilities of about 10 μM were obtained
